Measurements published in patent US7807673B2, “2-pyrimidinyl pyrazolopyridine ErbB kinase inhibitors” (GlaxoSmithKline LLC, priority 2005, dated 2010).

Key:
ErbB2 or EGFR = biological target: T1, ErbB2 or EGFR; assay: ErbB enzyme substrate phosphorylation assay (HTRF), Method B (enzyme pre-incubated with compound 1 hour); assay type: biochemical; details: Table 1, enzyme Method B: enzyme mix incubated with compound 1 hour at 20° C., reaction started with substrate mix; class over ErbB2 or EGFR
T1 construct: enzymes purified from a baculovirus expression system
Experimental: Compounds of the present invention were tested for EGFR, ErbB-2, and ErbB-4 protein tyrosine kinase inhibitory activity in substrate phosphorylation assays using enzymes purified from a baculovirus expression system. Reagent production was conducted essentially as described in Brignola, P. S., et al, (2002) J. Biol. Chem. 277(2): 1576-1585.
The method measures the ability of the isolated enzyme to catalyse the transfer of the gamma-phosphate from ATP onto the tyrosine residue of a biotinylated synthetic peptide referenced “Peptide C” in Brignola, P. S., et al, (2002) J. Biol. Chem. 277(2):1576-1585. The extent of tyrosine phosphorylation was measured using an anti-phosphotyrosine antibody, and quantified by homogenous time-resolved fluorescence (HTRF).
Reactions were performed in black 384-well polystyrene flat-bottom plates in a final volume of 20 μl. Assays were performed by adding 10 μl of each of the following solutions, substrate Mix and enzyme mix: The Substrate mix contained 100 mM 3-[N-morpholino]propanesulfonic acid (MOPS) (pH 7.5), 2 mM MnCl2, 20 μM ATP, 0.01% Tween-20, 0.1 mg/mL (BSA), 0.8 uM peptide substrate, and 1 mM dithiothreitol. The enzyme mix contained 100 mM MOPS (pH7.5); 0.01% Tween-20; 0.1 mg/mL BSA, and either 0.8 nM EGFR, 10 nM ErbB2, or 1 nM ErbB4
During the course of these studies, two separate methods have been used to measure the potency of compounds. In Method A, the substrate mix was added to the compound plates first, then the reaction was started by adding the enzyme mix. In Method B, the enzyme mix was added to the compound plates and the plates were incubated at 20° C. for 1 hour. The reactions were then started by adding the substrate mix.
After initiating the reaction with either method describe above, the reactions were allowed to proceed for 90 minutes at 20° C. The reactions were then terminated by the addition of 20 μl 100 mM EDTA to each well. 40 μl/well of HTRF detection mix were added to the assay plates. The final concentrations of the detection reagents were: 100 mM HEPES (pH7.5), 0.1 mg/mL BSA, 15 nM streptavidin-labeled allophycocyanin (PerkinElmer), and 1 nM europium-labeled anti-phosphotyrosine antibody (PerkinElmer). Assay plates were left unsealed and were counted in a Wallac Multilabel Counter 1420 (PerkinElmer).
Compounds under analysis were dissolved in Me2SO to 1.0 mM and serially diluted 1 to 3 with Me2SO through twelve dilutions. 1 μl of each concentration was transferred to the corresponding well of an assay plate. This creates a final compound concentration range from 0.00027 to 47.6 μM.
The data for dose responses were plotted as % Inhibition calculated with the data reduction formula 100*(1−(U1−C2)/(C1−C2)) versus concentration of compound where U is the unknown value, C1 is the average control value obtained for 4.76% DMSO, and C2 is the average control value obtained for 0.035 M EDTA. Data were fitted with a curve described by: y=((Vmax*x)/(K+x))+Y2 where Vmax is the upper asymptote, Y2 is the Y intercept, and K is the IC50. The results for each compound were recorded as pIC50s, calculated as follows: pIC50=−Log 10(K)

Colo205 tumor cell lines = assay: Celltiter Glo growth inhibition assay (cellular Method B); assay type: cell-based; details: Homo sapiens, COLO 205, 72 h, Table 3, Method B Celltiter Glo, 3 days
Experimental: (§1) Human breast tumor cells (BT474) were cultured in RPMI, (Invitrogen, 22400) containing 10% fetal bovine serum (FBS). Human head and neck tumor cells (HN5) were cultured in low glucose DMEM (Invitrogen, 12320) containing 10% FBS. Human colon tumor cells (Colo205) were cultured in DMEM (Invitrogen, 10564) containing 10% FBS. All cell lines were maintained at 37° C. in a humidified 5% CO2, 95% air incubator. Cells were harvested using trypsin/EDTA, counted using a haemocytometer, and plated in 30 microliters of the appropriate media described above, at the following densities, in a half area, black-walled, 96-well tissue culture plate (Corning 3882): BT474 3,000 cells/well, HN5 500 cells/well and Colo205 cells, 3,000 cells/well. The next day, compounds were diluted in DMEM containing 100 mg/ml gentamicin, from 10 mM stock solutions in DMSO. 30 microliters/well of these dilutions were added to the 30 microliters/well of media currently on the cell plates. Medium containing 0.6% DMSO was added to control wells. The final concentration of DMSO in all wells was 0.3%. Cells were incubated at 37° C., 5% CO2 for 3 days. Cell biomass was estimated using Celltiter Glo (Promega G7571). Briefly, plates were removed from the incubator and allowed to equilibrate to rt for 30 minutes. 60 microliters of Celltiter Glo reagent were added to each well of the treated cells and plates were shaken on an orbital plate shaker for 2 min. Plates were incubated without shaking for 30 more min and read in a luminometer with an integration time of 0.5 seconds per well. Percent inhibition of cell growth was calculated relative to vehicle treated control wells. Concentration of compound that inhibits 50% of vehicle control cell growth (IC50) was interpolated using nonlinear regression (Levenberg-Marquardt) and the equation, y=Vmax*(1−(x/(K+x)))+Y2, where “K” was equal to the IC50.

[1] = tested on: BT474 and HN5 tumor cell lines; assay: as above; assay type: cell-based; details: Homo sapiens, BT-474, 72 h; Table 2, Method B Celltiter Glo, 3 days; class over BT474 and HN5;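 note: class counts the more potent of the two cell lines (BT474 or HN5)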
Experimental: as §1

IC50 (Colo205 tumor cell lines) [µM] | IC50 [1] [µM] | SMILES | Activity (Method) (ErbB2 or EGFR)
> 1 | > 1 | CN1CCc2ccc(Nc3nccc(-c4c(-c5cccc(NC(=O)Cc6cccs6)c5)nn5cccc(F)c45)n3)cc2C1 [Example 30, N-[3-(4-fluoro-3-{2-[(2-methyl-1,2,3,4-tetrahydro-7-isoquinolinyl)amino]-4-pyrimidinyl}pyrazolo[1,5-a]pyridin-2-yl)phenyl]-2-(2-thienyl)acetamide] | ++ (B) (at least one pIC50 measurement greater than 6 against either ErbB2 or EGFR but no measurement greater than pIC50 of 7)
> 1 | > 1 | CN(C)CCOc1cccc(Nc2nccc(-c3c(-c4cccc(NC(=O)Cc5cccs5)c4)nn4cccc(F)c34)n2)c1 [Example 31, N-[3-(3-{2-[(3-{[2-(dimethylamino)ethyl]oxy}phenyl)amino]-4-pyrimidinyl}-4-fluoropyrazolo[1,5-a]pyridin-2-yl)phenyl]-2-(2-thienyl)acetamide] | ++ (B) (at least one pIC50 measurement greater than 6 against either ErbB2 or EGFR but no measurement greater than pIC50 of 7)
> 1 | > 1 | O=C(Cc1cccs1)Nc1cccc(-c2nn3cccc(F)c3c2-c2ccnc(Nc3cccc(F)c3)n2)c1 [Example 32, N-[3-(4-fluoro-3-{2-[(3-fluorophenyl)amino]-4-pyrimidinyl}pyrazolo[1,5-a]pyridin-2-yl)phenyl]-2-(2-thienyl)acetamide] | + (B) (no pIC50 measurement greater than 6 against either ErbB2 or EGFR)
> 1 | > 1 | O=C(Cc1cccs1)Nc1cccc(-c2nn3cc(F)ccc3c2-c2ccnc(Nc3cccc(F)c3)n2)c1 [Example 33, N-[3-(6-fluoro-3-{2-[(3-fluorophenyl)amino]-4-pyrimidinyl}pyrazolo[1,5-a]pyridin-2-yl)phenyl]-2-(2-thienyl)acetamide] | ++ (B) (at least one pIC50 measurement greater than 6 against either ErbB2 or EGFR but no measurement greater than pIC50 of 7)
0.1 to 1 | 0.1 to 1 | CN(C)CCOc1cccc(Nc2nccc(-c3c(-c4cccc(NC(=O)Cc5cccs5)c4)nn4cc(F)ccc34)n2)c1 [Example 34, N-[3-(3-{2-[(3-{[2-(dimethylamino)ethyl]oxy}phenyl)amino]-4-pyrimidinyl}-6-fluoropyrazolo[1,5-a]pyridin-2-yl)phenyl]-2-(2-thienyl)acetamide] | +++ (B) (at least one pIC50 measurement of greater than 7 against either ErbB2 or EGFR)
> 1 | 0.1 to 1 | CN1CCc2ccc(Nc3nccc(-c4c(-c5cccc(NC(=O)Cc6cccs6)c5)nn5cc(F)ccc45)n3)cc2C1 [Example 35, N-[3-(6-fluoro-3-{2-[(2-methyl-1,2,3,4-tetrahydro-7-isoquinolinyl)amino]-4-pyrimidinyl}pyrazolo[1,5-a]pyridin-2-yl)phenyl]-2-(2-thienyl)acetamide] | ++ (B) (at least one pIC50 measurement greater than 6 against either ErbB2 or EGFR but no measurement greater than pIC50 of 7)

More lines, now with the values behind:

SMILES | IC50 (Colo205 tumor cell lines) [µM] | IC50 [1] [µM] | Activity (Method) (ErbB2 or EGFR)
O=C(Cc1ccsc1)Nc1cccc(-c2nn3ccccc3c2-c2ccnc(Nc3cccc(-c4cnco4)c3)n2)c1 [Example 17, N-{3-[3-(2-{[3-(1,3-Oxazol-5-yl)phenyl]amino}-4-pyrimidinyl)pyrazolo[1,5-a]pyridin-2-yl]phenyl}-2-(3-thienyl)acetamide] | 0.1 to 1 | 0.1 to 1 | +++ (B) (at least one pIC50 measurement of greater than 7 against either ErbB2 or EGFR)
O=C(Cc1c[nH]c2ccccc12)Nc1cccc(-c2nn3ccccc3c2-c2ccnc(Nc3cccc(-c4cnco4)c3)n2)c1 [Example 18, 2-(1H-Indol-3-yl)-N-{3-[3-(2-{[3-(1,3-oxazol-5-yl)phenyl]amino}-4-pyrimidinyl)pyrazolo[1,5-a]pyridin-2-yl]phenyl}acetamide] | > 1 | 0.1 to 1 | ++ (B) (at least one pIC50 measurement greater than 6 against either ErbB2 or EGFR but no measurement greater than pIC50 of 7)
Cc1cc(CC(=O)Nc2cccc(-c3nn4ccccc4c3-c3ccnc(Nc4cccc(-c5cnco5)c4)n3)c2)on1 [Example 19, 2-(3-Methyl-5-isoxazolyl)-N-{3-[3-(2-{[3-(1,3-oxazol-5-yl)phenyl]amino}-4-pyrimidinyl)pyrazolo[1,5-a]pyridin-2-yl]phenyl}acetamide] | > 1 | 0.1 to 1 | +++ (B) (at least one pIC50 measurement of greater than 7 against either ErbB2 or EGFR)
O=C(Cc1c(F)cccc1F)Nc1cccc(-c2nn3ccccc3c2-c2ccnc(Nc3cccc(-c4cnco4)c3)n2)c1 [Example 20, 2-(2,6-Difluorophenyl)-N-{3-[3-(2-{[3-(1,3-oxazol-5-yl)phenyl]amino}-4-pyrimidinyl)pyrazolo[1,5-a]pyridin-2-yl]-phenyl}acetamide] | 0.1 to 1 | 0.1 to 1 | +++ (B) (at least one pIC50 measurement of greater than 7 against either ErbB2 or EGFR)
O=C(Cc1cccnc1)Nc1cccc(-c2nn3ccccc3c2-c2ccnc(Nc3cccc(-c4cnco4)c3)n2)c1 [Example 21, N-{3-[3-(2-{[3-(1,3-Oxazol-5-yl)phenyl]amino}-4-pyrimidinyl)pyrazolo[1,5-a]pyridin-2-yl]phenyl}-2-(3-pyridinyl)acetamide] | > 1 | 0.1 to 1 | +++ (B) (at least one pIC50 measurement of greater than 7 against either ErbB2 or EGFR)
O=C(Cc1ccncc1)Nc1cccc(-c2nn3ccccc3c2-c2ccnc(Nc3cccc(-c4cnco4)c3)n2)c1 [Example 22, N-{3-[3-(2-{[3-(1,3-Oxazol-5-yl)phenyl]amino}-4-pyrimidinyl)pyrazolo[1,5-a]pyridin-2-yl]phenyl}-2-(4-pyridinyl)acetamide] | > 1 | > 1 | +++ (B) (at least one pIC50 measurement of greater than 7 against either ErbB2 or EGFR)
O=C(Cc1ccccn1)Nc1cccc(-c2nn3ccccc3c2-c2ccnc(Nc3cccc(-c4cnco4)c3)n2)c1 [Example 23, N-{3-[3-(2-{[3-(1,3-Oxazol-5-yl)phenyl]amino}-4-pyrimidinyl)pyrazolo[1,5-a]pyridin-2-yl]phenyl}-2-(2-pyridinyl)acetamide] | 0.1 to 1 | 0.1 to 1 | +++ (B) (at least one pIC50 measurement of greater than 7 against either ErbB2 or EGFR)
